Results as given in patent US8969298B2, “Liquid preparation of physiologically active peptide” (Daiichi Sankyo Co., Ltd., priority 2004, dated 2015).

What was measured:
[1] = Pharmacokinetics of human ghrelin preparations intravenously, subcutaneously or intramuscularly administered to rats (plasma ghrelin by RIA); format: in vivo; conditions: s.c.
Procedure: 7-week old, male SD rats (Charles River Laboratories Japan Inc.) were used. A group of three rats was used for the tests. For intravenous administration, these animals each inserted a polyethylene tube (PE-50, Clay Adams Co., Ltd.) in the femoral artery were used. Preparation No. 2 was administered through the tail vain at a dose of 0.5 mL/kg by using a syringe and a 26 G needle (each available from Terumo Co., Ltd.). Blood samples were collected from the polyethylene tube in the femoral artery before administration and 1, 3, 5, 10, 20, 30, 60, and 90 minutes after administration.
Similarly, these animals inserted a polyethylene tube in the femoral artery were used for subcutaneous administration of Preparation No. 3 in the dorsal skin at a dose of 1 mL/kg using a syringe and a 26 G needle. Blood samples were collected from the polyethylene tube in the femoral artery before administration and 5, 10, 20, and 30 minutes after administration.
To each sample, one-hundredth as much of an EDTA.2Na.2H2O solution and one-fiftieth as much of an AEBSF solution were added immediately after collection of the sample. […]
The plasma samples were then analyzed for the ghrelin levels by radioimmunoassay (RIA) using an anti-ghrelin antibody. […] The supernatant was separated and analyzed for radioactivity by a γ-counter (Packard Instruments Co., Ltd.).
The results shown in FIG. 1 were used to determine the following pharmacokinetic parameters for each injection route: the maximum plasma ghrelin concentration (Cmax) and the time it took before the maximum plasma concentration was reached (T). […] Using the trapezoidal method, the area under the concentration curve (AUC) was also calculated for each injection route. […]
As with the examples of subcutaneous administration, these rats, inserted a polyethylene tube in the femoral artery, were intramuscularly administered Preparations No. 3 and No. 13 in the femoral muscle at a dose of 1 mL/kg, using a syringe and a 26 G needle. The blood samples were collected in the same manner as in Comparative Example 2 and the plasma ghrelin levels were measured by RIA method.

[2] = Pharmacokinetics of ghrelin preparations intravenously or subcutaneously administered to cynomolgus monkeys (plasma ghrelin by ELISA); conditions: cynomolgus monkey, in vivo, sc, read-out: BA of subcutaneously injected ghrelin
Procedure: Preparations No. 5 and No. 33 were subcutaneously administered to separate groups of cynomolgus monkeys and the plasma ghrelin levels were measured. Furthermore, Preparation No. 1 was intravenously administered to another group of cynomolgus monkeys. The plasma ghrelin levels were measured.
Each group consisted of three male monkeys (imported from China) aged 4 to 6 years. Preparations No. 5 and No. 33 were subcutaneously injected in the dorsal skin at a dose of 0.2 mL/body using a syringe and a 26 G needle (each available from Terumo Co., Ltd.).
Using a syringe and a 26 G needle (each available from Terumo Co., Ltd.), Preparation No. 1 was intravenously injected in the forearm vena cephalica at a dose of 2 mL/kg.
In each case, blood samples were collected from the forearm vena cephalica before administration and 5, 10, 15, 30, 40, 60, 90, and 120 minutes after administration. […]
The plasma samples were then analyzed for the ghrelin levels by Enzyme-Linked Immunosolvent Assay (ELISA) using Active Ghrelin ELISA Kit (Cat. No. MM-401, Mitsubishi Kagaku latron Inc.). […]
The results shown in FIG. 7 were used to determine Cmax and Tmax for each liquid preparation. Using the trapezoidal method, the AUC was also calculated for each preparation. […]

In the case of `CCCCCCCC(=O)OC[C@H](NC(=O)[C@H](CO)NC(=O)CN)C(=O)N[C@@H](Cc1ccccc1)C(=O)N[C@@H](CC(C)C)C(=O)N[C@@H](CO)C(=O)N1CCC[C@H]1C(=O)N[C@@H](CCC(=O)O)C(=O)N[C@@H](Cc1cnc[nH]1)C(=O)N[C@@H](CCC(N)=O)C(=O)N[C@@H](CCCNC(=N)N)C(=O)N[C@H](C(=O)N[C@@H](CCC(N)=O)C(=O)N[C@@H](CCC(N)=O)C(=O)N[C@@H](CCCNC(=N)N)C(=O)N[C@@H](CCCCN)C(=O)N[C@@H](CCC(=O)O)C(=O)N[C@@H](CO)C(=O)N[C@@H](CCCCN)C(=O)N[C@@H](CCCCN)C(=O)N1CCC[C@H]1C(=O)N1CCC[C@H]1C(=O)N[C@@H](C)C(=O)N[C@@H](CCCCN)C(=O)N[C@@H](CC(C)C)C(=O)N[C@@H](CCC(N)=O)C(=O)N1CCC[C@H]1C(=O)N[C@@H](CCCNC(=N)N)C(=O)O)C(C)C` [ghrelin], the “BA of subcutaneously injected ghrelin” value [1] was “at most 5%”, the BA of ghrelin ([1]; mixed with sodium acetate buffer (pH 4.0)) was 35.3% and the BA of ghrelin ([1]; mixed with urea as a solubilizing agent) was 3.4%. The bioavailability [2] was ≤ 3%.
